What was measured:
Format in all cases: cell-based
[1] = system: Rhodococcus erythropolis strain JCM 3201; test: Minimum growth inhibition concentration on LB agar medium, strain JCM 3201; conditions: strain JCM 3201 (wild type), 30° C., 2 days
Excerpt: (§1) A microorganism of the genus Rhodococcus according to the present invention is a mutant microorganism of the genus Rhodococcus, which has a higher sensitivity to lysozyme than a wild-type microorganism of the genus Rhodococcus. The microorganism of the genus Rhodococcus is not limited to a specific species and includes Rhodococcus erythropolis, Rhodococcus fascians, and Rhodococcus opacus. The wild-type microorganism of the genus Rhodococcus refers to a microorganism belonging to the genus Rhodococcus and having no genetic mutation, for example, Rhodococcus erythropolis strain JCM 3201. More specifically, the microorganism of the genus Rhodococcus according to the present invention having a higher sensitivity to lysozyme is a mutant derived from a wild-type microorganism of the genus Rhodococcus as a parent strain, and having an increased sensitivity to lysozyme compared to the parent strain. The phrase “having an increased sensitivity to lysozyme” means that cell lysis may occur at a low lysozyme concentration. […] Alternatively, the degree of sensitivity to lysozyme can be determined by adding lysozyme to a predetermined concentration of a microorganism of the genus Rhodococcus, and monitoring a change in absorbence while culturing. […]

[2] = system: Rhodococcus erythropolis strain L-88; test: Minimum growth inhibition concentration on LB agar medium, strain L-88; conditions: 30° C., 2 days
Excerpt: as §1

[3] = system: Rhodococcus erythropolis strain L-65; test: Minimum growth inhibition concentration on LB agar medium, strain L-65; conditions: 30° C., 2 days
Excerpt: as §1

[4] = system: Rhodococcus erythropolis wild type and mutant strain; test: Comparison of wild type and mutant strain for sensitivity to antibiotics; conditions: determined similarly to the ampicillin test
Method: The sensitivity of Rhodococcus erythropolis strain L-65 and L-88 to ampicillin was determined in the same manner as in Example 1. To explain more specifically, the bacterial cells of each strain were inoculated in LB medium and cultured with shaking at 30° C. A part of the culture solution was taken in the middle of logarithmic growth period and diluted with fresh LB medium so as to contain 1×10^5, 1×10^4, 1×10^3, 1×10^2, and […] cells in 10 μl of the LB medium. The diluted culture solutions thus prepared were dropped onto each of LB agar mediums containing lysozyme in concentrations of 15, 10, 1, and 0.1 μg/ml. After the mediums were cultured at 30° C. for 2 days and the presence or absence of bacterial cells grown on the mediums was checked. In this manner, the minimum growth inhibition concentration was determined (Table 2).

[5] = system: Rhodococcus erythropolis strain L-88; test: Turbidity change of culture solution by addition of lysozyme, strain L-88; conditions: lysozyme 12.5 μg/ml added at OD600 about 0.2, LB medium, 30° C.
Method: (§2) To 100 ml of LB medium, Rhodococcus erythropolis strain L-65 was inoculated and cultured with shaking at 30° C. The absorbence (OD600) of the culture solution was measured at an absorption wavelength of 600 nm every hour from the beginning of the logarithmic growth period. When OD600 reached about 0.2, the volume of the culture solution was divided into halves. To one of them, lysozyme was added to a final concentration of 12.5 μg/ml. No lysozyme was added to the other. While both solutions were further cultured continuously, the absorbence was measured. The growth profiles of Rhodococcus erythropolis strain L-65 culture solutions with Lysozyme (12.5 μg/ml) and without lysozyme were shown by absorbence at 600 nm. When OD600 reached about 0.2, lysozyme was added (Indicated by the arrow in the figure). […] This is considered because bacterial cell lysis was caused by lysozyme.
The same operation as in Example 2 was performed by use of Rhodococcus erythropolis strain L-88. The growth profiles of culture solutions of Rhodococcus erythropolis strain L-88 with lysozyme (12.5 μg/ml) and without lysozyme were shown by absorbence at 600 nm. When OD600 reached about 0.2, lysozyme was added (Indicated by the arrow in the figure). […] This is considered because bacterial cell lysis was caused by lysozyme.

[6] = system: Rhodococcus erythropolis strain L-88; test: Cell lysis with lysozyme for extraction of recombinant PIP protein, strain L-88; conditions: lysozyme 1 mg/ml, 37° C., one hour, nondenaturation buffer
[7] = system: Rhodococcus erythropolis strain JCM 3201; test: Cell lysis with lysozyme for extraction of recombinant PIP protein, strain JCM 3201; conditions: lysozyme 1 mg/ml, 37° C., one hour
[8] = system: Rhodococcus erythropolis strain L-65; test: Turbidity change of culture solution by addition of lysozyme, strain L-65; conditions: lysozyme 12.5 μg/ml added at OD600 about 0.2, LB medium, 30° C.
Method: as §2

[9] = system: Rhodococcus erythropolis strain JCM 3201; test: Turbidity change of culture solution by addition of lysozyme, strain JCM 3201; conditions: lysozyme 12.5 μg/ml added at OD600 about 0.2, LB medium, 30° C.
Method: as §2
The same operation as in Example 2 was performed by use of Rhodococcus erythropolis strain JCM 3201. The growth profiles of culture solutions of Rhodococcus erythropolis strain JCM 3201 with lysozyme (12.5 μg/ml) and without lysozyme were shown by absorbence at 600 nm. When OD600 reached about 0.2, lysozyme was added (Indicated by the arrow in the figure).

[10] = system: Rhodococcus erythropolis strain L-65; test: Cell lysis with lysozyme for extraction of recombinant PIP protein, strain L-65; conditions: lysozyme 1 mg/ml, 37° C., one hour, nondenaturation buffer
Excerpt: A plasmid (pHN170, Nakashima and Tamura: the full length sequence is represented by SEQ ID No: 2) was constructed such that it could self-replicate in a bacterial cell of Rhodococcus erythropolis and could be induced by thiostreptone to express a proline iminopeptidase (hereinafter referred to as “PIP”) protein (T. Tamura et al., FEBS Lett. 398, 101-105 (1996)) having a 6× histidine tag at the C terminal. This plasmid was introduced into Rhodococcus erythropolis strain L-65 by an electroporation method. Transformants were screened on LB agar medium containing tetracycline (20 μg/ml). The transformants were inoculated on 4 ml of LB medium containing tetracycline (8 μg/ml) and cultured with shaking at 30° C. until the absorbence at an absorption wavelength of 600 nm reached 0.8. The entire culture solution was added to 40 ml of LB medium containing thiostreptone (1 μg/ml) and cultured with rotation in a vaned flask for 16 hours. After PIP protein was induced to express, bacterial cells were centrifugally collected at 1,500×g for 15 minutes. […] As a result, a clear band was detected near the molecular weight (34.3 KDa), which was predicted from the amino acid sequence of the 6× histidine-fused PIP protein (FIG. 5). […]

CC1(C)S[C@@H]2[C@H](NC(=O)[C@H](N)c3ccccc3)C(=O)N2[C@H]1C(=O)O [ampicillin, reference compound]
Minimum growth-inhibiting ampicillin concentration [1]: 15 µg/mL | Minimum growth-inhibiting ampicillin concentration [2]: 1 µg/mL | Minimum growth-inhibiting ampicillin concentration [3]: 1 µg/mL

O=C(N[C@H](CO)[C@H](O)c1ccc([N+](=O)[O-])cc1)C(Cl)Cl [chloramphenicol]
Difference in sensitivity between wild type and mutant strain [4]: no significant difference was observed

lysozyme: lysozyme derived from egg-white (manufactured by Sigma), cell-wall lytic enzyme
Change of absorbence (OD600) of culture solution after addition of lysozyme [5]: a sharp decrease in absorbence was observed | Minimum growth-inhibiting lysozyme concentration [1]: >400 µg/mL | Cell lysis by lysozyme treatment (PIP band in supernatant, SDS polyacrylamide gel electrophoresis) [6]: The same phenomenon as in the case of bacterial stain L-65 is considered | Cell lysis by lysozyme treatment (PIP band in supernatant, SDS polyacrylamide gel electrophoresis) ([7]; strain JCM 3201, nondenaturation buffer, no ampicillin): cell lysis rarely takes place | Cell lysis by lysozyme treatment (PIP band in supernatant, SDS polyacrylamide gel electrophoresis) ([7]; strain JCM 3201 treated with ampicillin 600 μg/ml for 2 hours before cell collection): cell lysis takes place even in nondenaturation conditions | Change of absorbence (OD600) of culture solution after addition of lysozyme [8]: a sharp decrease in absorbence was observed | Change of absorbence (OD600) of culture solution after addition of lysozyme [9]: the same tendency of growth was observed | Minimum growth-inhibiting lysozyme concentration [2]: 12.5 µg/mL | Cell lysis by lysozyme treatment (PIP band in supernatant, SDS polyacrylamide gel electrophoresis) [10]: Cells were lysed completely

thiostreptone
Difference in sensitivity between wild type and mutant strain [4]: no significant difference was observed
